US10227331B2 (priority 2015, dated 2019)

What was measured:
IMP-1 = IMP-1 (Serratia marcescens, UniProt P52699); test: biochemical; type: biochemical; conditions: CCF2-FA substrate, 2 hours at 25° C; read-out: IMP-1 IC50
How it was run: (§1)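 Test compound, enzyme and the FRET cephalosporin substrate CCF2-FA are incubated together for 2 hours at 25° C. Cleavage is followed by fluorescence, and IC50 values are derived from semi-logarithmic inhibition curves fitted with a 4-parameter model.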

NDM-1 = NDM-1 (Klebsiella pneumoniae, UniProt C7C422); test: biochemical; type: biochemical; conditions: CCF2-FA substrate, 2 hours at 25° C; read-out: NDM-1 IC50
NDM-1, sequence (C7C422 whole entry, looked up, species assumed): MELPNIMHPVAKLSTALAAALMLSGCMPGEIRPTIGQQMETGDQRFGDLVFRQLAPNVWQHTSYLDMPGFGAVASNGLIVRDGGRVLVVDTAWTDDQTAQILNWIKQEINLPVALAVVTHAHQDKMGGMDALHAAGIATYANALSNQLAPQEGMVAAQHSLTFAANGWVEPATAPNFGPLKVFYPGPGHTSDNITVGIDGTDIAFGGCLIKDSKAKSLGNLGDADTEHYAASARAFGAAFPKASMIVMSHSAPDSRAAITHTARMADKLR
How it was run: as §1

VIM-1 = VIM-1 (Pseudomonas aeruginosa (strain ATCC 15692 / DSM 22644 / CIP 104116 / JCM 14847 / LMG 12228 / 1C / PRS 101 / PAO1), UniProt A0A0F7KYQ8); test: biochemical; conditions: CCF2-FA substrate, 2 hours at 25° C
How it was run: as §1

[1] = test system: Escherichia coli expressing NDM-1 (CLB30005, CLB30016); type: cell-based; conditions: with imipenem 1 μg/ml, 95% inhibition of bacterial growth; for Escherichia coli MITC95: NDM-1 (CLB30016)
How it was run: (§2)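 Clinical strains grown overnight on blood agar, then diluted 1:100 in 1.1× CAMHB and exposed to test compound with imipenem at 1 μg/ml. Incubation was 22–24 h at 35° C; growth was read by absorbance to find the compound concentration restoring imipenem susceptibility.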

[2] = test system: Klebsiella pneumoniae expressing VIM-1 (IHMA599644); type: cell-based; conditions: with imipenem 1 μg/ml, 95% inhibition of bacterial growth; for Klebsiella pneumoniae MITC95: VIM-1 (IHMA599644)
How it was run: as §2

[3] = test system: Serratia marcescens expressing IMP-1 (CL5741); type: cell-based; conditions: with imipenem 1 μg/ml, 95% inhibition of bacterial growth; for Serratia marcescens MITC95: IMP-1 (CL5741)
How it was run: as §2

[4] = test system: P. aeruginosa expressing IMP-1, efflux+ (MB9798); type: cell-based, Pseudomonas aeruginosa; conditions: for P. aeruginosa expressing IMP-1, efflux+ (MB9798) MITC95: imipenem at 2 μg/mL, in the presence of a class A, C, D serine β-lactamase inhibitor closely related to relebactam; for Efflux ratio: ratio MITC95 PA_9798/MITC95 PA_9799
Excerpt: (§3) The strain background is Pseudomonas aeruginosa PAO1.

[5] = test system: P. aeruginosa expressing IMP-1, efflux− (MB9799); test: Efflux: concentration of MBL inhibitor which restores susceptibility to imipenem; type: cell-based, Pseudomonas aeruginosa; conditions: imipenem at 2 μg/mL, in the presence of a class A, C, D serine β-lactamase inhibitor closely related to relebactam
Excerpt: as §3

IMP-1, sequence (P52699 whole entry, looked up, species assumed): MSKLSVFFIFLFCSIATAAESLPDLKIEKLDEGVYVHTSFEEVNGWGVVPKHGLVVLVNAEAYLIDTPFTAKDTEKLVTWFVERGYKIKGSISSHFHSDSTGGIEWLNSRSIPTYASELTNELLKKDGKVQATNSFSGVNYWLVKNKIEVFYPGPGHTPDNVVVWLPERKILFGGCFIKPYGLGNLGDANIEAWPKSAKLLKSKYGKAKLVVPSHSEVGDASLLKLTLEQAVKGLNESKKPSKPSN

SMILES	IC50 (IMP-1) [nM]	IC50 (NDM-1) [nM]	IC50 (VIM-1) [nM]	Escherichia coli MITC95 [1] [µM]	Klebsiella pneumoniae MITC95 [2] [µM]	Serratia marcescens MITC95 [3] [µM]	P. aeruginosa expressing IMP-1, efflux+ (MB9798) MITC95 [4] [µM]	Efflux ratio [4]	P. aeruginosa expressing IMP-1, efflux− (MB9799) MITC95 [5] [µM]	Escherichia coli expressing NDM-1 (CLB30016) MITC95 [1] [µM]	Klebsiella pneumoniae expressing VIM-1 (IHMA599644) MITC95 [2] [µM]	Serratia marcescens expressing IMP-1 (CL5741) MITC95 [3] [µM]
N#Cc1ccc(-c2ccc(S(=O)(=O)CCN)c(S(N)(=O)=O)c2-c2nnn[nH]2)c2[nH]c(N)nc12 [Example 295, 3-(2-amino-4-cyano-1H-benzo[d]imidazol-7-yl)-6-((2-aminoethyl)sulfonyl)-2-(1H-tetrazol-5-yl)benzenesulfonamide]	1.22	0.116	0.105	1.563	3.125	3.125	1.563	1.00	1.563			
NCCS(=O)(=O)c1ccc(-c2cccc3c2nc(N)n3CC(F)(F)F)c(-c2nn[nH]n2)c1S(N)(=O)=O [Example 18, 3-(2-Amino-1-(2,2,2-trifluoroethyl)-1H-benzo[d]imidazol-4-yl)-6-((2-aminoethyl)sulfonyl)-2-(2H-tetrazol-5-yl)benzenesulfonamide]	0.227	0.442	0.361				3.125	2.00	1.563	1.563	3.125	3.125
CS(=O)(=O)c1ccc([C@H]2CC[C@H](N)CC2)c(-c2nnn[nH]2)c1S(N)(=O)=O [Example 210, 3-((1r,4r)-4-aminocyclohexyl)-6-(methylsulfonyl)-2-(1H-tetrazol-5-yl) benzenesulfonamide]	7.76	32.2	0.566				12.5	16.00	0.7813	3.125	3.125	1.563
NS(=O)(=O)c1c(S(=O)(=O)C2CNC2)ccc(-c2csc(N3CCOCC3)n2)c1-c1nnn[nH]1.O=C(O)C(F)(F)F [Example 124, 3-((4-(2-morpholinothiazol-4-yl)-2-sulfamoyl-3-(1H-tetrazol-5-yl)phenyl)sulfonyl)azetidin-1-ium 2,2,2-trifluoroacetate]	6.1	1.5	4.95				200	127.96	1.563	3.125	12.5	6.25
Nc1cccc(-c2ccc(S(=O)(=O)C3CNC3)c(S(N)(=O)=O)c2-c2nn[nH]n2)n1 [Example 223, 3-(6-aminopyridin-2-yl)-6-(azetidin-3-ylsulfonyl)-2-(2H-tetrazol-5-yl)benzenesulfonamide]	10.2	2.51	3.16				6.25	2.00	3.125	0.7813	6.25	3.125
NS(=O)(=O)c1c(S(=O)(=O)C2CNC2)ccc(-c2cccc3[nH]c(C(=O)NCC(=O)O)nc23)c1-c1nn[nH]n1 [Example 257, (4-(4-(azetidin-3-yl sulfonyl)-3-sulfamoyl-2-(2H-tetrazol-5-yl)phenyl)-1H-benzo[d]imidazole-2-carbonyl)glycine]	1.2	0.123	0.428	25	50	25	25	2.00	12.5			
COc1ccc(Cc2cc3c(-c4ccc(S(=O)(=O)C5CNC5)c(S(N)(=O)=O)c4-c4nnn[nH]4)cccc3[nH]2)cc1 [Example 231, 6-(azetidin-3-ylsulfonyl)-3-(2-(4-methoxybenzyl)-1H-indol-4-yl)-2-(1H-tetrazol-5-yl)benzenesulfonamide]	0.717	0.102	0.558				25	8.00	3.125	6.25	12.5	6.25
NCCS(=O)(=O)c1ccc(-c2cccc3[nH]c([C@H](N)CO)nc23)c(-c2nn[nH]n2)c1S(N)(=O)=O [Example 329, (S)-3-(2-(1-amino-2-hydroxyethyl)-1H-benzo[d]imidazol-4-yl)-6-((2-aminoethyl)sulfonyl)-2-(2H-tetrazol-5-yl) benzenesulfonamide]	1.93	0.404	0.282	1.563	6.25	3.125	3.125	2.00	1.563			
CC(=O)Nc1ccc(-c2ccc(S(=O)(=O)CCN)c(S(N)(=O)=O)c2-c2nnn[nH]2)cn1.O=C(O)C(F)(F)F [Example 135, 2-((4-(6-acetamidopyridin-3-yl)-2-sulfamoyl-3-(1H-tetrazol-5-yl)phenyl)sulfonyl)ethanaminium 2,2,2-trifluoroacetate]	1.65	0.265	1.22				3.125	2.00	1.563	0.7813	6.25	3.125
NCCS(=O)(=O)c1ccc(-c2cccc(N3CCCC3=O)n2)c(-c2nnn[nH]2)c1S(N)(=O)=O.O=C(O)C(F)(F)F [Example 147, 2-((4-(6-(2-oxopyrrolidin-1-yl)pyridin-2-yl)-2-sulfamoyl-3-(1H-tetrazol-5-yl)phenyl)sulfonyl)ethanaminium 2,2,2-trifluoroacetate]	4.1	3.12	0.519				100	63.98	1.563	6.25	6.25	6.25
NS(=O)(=O)c1c(S(=O)(=O)C2CCNCC2)ccc(-c2cccc3c2CNC3=O)c1-c1nn[nH]n1 [Example 318, 3-(1-oxoisoindolin-4-yl)-6-(piperidin-4-ylsulfonyl)-2-(2H-tetrazol-5-yl)benzenesulfonamide]	27.1	1.95	0.517	12.5	12.5	25	25	4.00	6.25			
